Target: T1, Recombinant human liver GK1 (GST-GK) (Homo sapiens, UniProt P35557)
T1 construct: made in house; host or cells: E. coli
T1 sequence (P35557 1-466 isoform P35557-2): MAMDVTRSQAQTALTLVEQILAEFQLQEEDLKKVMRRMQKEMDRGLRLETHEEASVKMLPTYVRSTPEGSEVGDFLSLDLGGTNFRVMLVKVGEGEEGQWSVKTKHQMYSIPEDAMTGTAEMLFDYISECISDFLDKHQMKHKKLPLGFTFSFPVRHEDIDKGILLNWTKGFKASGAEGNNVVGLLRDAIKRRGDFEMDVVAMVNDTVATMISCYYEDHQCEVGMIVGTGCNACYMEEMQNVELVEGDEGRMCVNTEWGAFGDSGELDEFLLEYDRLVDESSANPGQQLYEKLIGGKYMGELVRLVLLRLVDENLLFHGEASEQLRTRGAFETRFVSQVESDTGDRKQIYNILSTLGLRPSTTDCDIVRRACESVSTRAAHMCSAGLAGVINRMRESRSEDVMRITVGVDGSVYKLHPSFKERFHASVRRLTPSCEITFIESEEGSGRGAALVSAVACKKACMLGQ
Assay: In vitro glucokinase activity (G6PDH-coupled NADH assay)
Type: biochemical
Conditions: for SC1.5 (concentration of activator that produced a 50% increase in the activity of GK): 30° C., 5 mM D-glucose, 10% DMSO
Outline: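 Activation measured as the rate of OD340 rise from G6PDH-coupled NADH production, relative to 10% DMSO control, reported as SC1.5 (concentration for 50% activity increase). Conditions: 30° C, pH 7.1 Hepes, 5 mM glucose, 1 mM ATP, purified recombinant GST-human GK1, compound preincubated 10 min before enzyme addition.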

| SC1.5 (concentration of activator that produced a 50% increase in the activity of GK) [µM] | fold act. @ 30 μM (at 30 μM test compound) [fold] | SMILES |
| --- | --- | --- |
| 0.137 | – | CC(C)(O)Cn1ccc(NC(=O)C(C[C@H]2C[C@@H](C)C2)N2CC(Oc3ccccc3Cl)=CC2=O)n1 (stereo partly drawn) [Example 217, 2-[4-(2-Chloro-phenoxy)-2-oxo-2,5-dihydro-pyrrol-1-yl]-N-[1-(2-hydroxy-2-methyl-propyl)-1H-pyrazol-3-yl]-3-(cis-3-methyl-cyclobutyl)-propionamide] |
| ~30 | 1.5 | CC(C)C[C@@H](C(=O)Nc1nc(CCC(F)(F)F)ns1)N1CC(Oc2ccccc2Cl)=CC1=O [Example 106, (S)-2-[4-(2-Chloro-phenoxy)-2-oxo-2,5-dihydro-pyrrol-1-yl]-4-methyl-pentanoic acid [3-(3,3,3-trifluoro-propyl)-[1,2,4]thiadiazol-5-yl]-amide] |
| 0.125 | – | CC[C@H](C)CC(C(=O)Nc1ccn(C[C@@H](O)CO)n1)N1CC(Oc2ccccc2Cl)=CC1=O (mixture of isomers) [Example 249, (S)-2-[4-(2-Chloro-phenoxy)-2-oxo-2,5-dihydro-pyrrol-1-yl]-4-methyl-hexanoic acid [1-((R)-2,3-dihydroxy-propyl)-1H-pyrazol-3-yl]-amide] |
| 0.072 | – | COc1ccc(F)c(OC2=CC(=O)N([C@@H](CC(C)C)C(=O)Nc3ccn(C[C@@H](O)CO)n3)C2)c1F [Example 119, (S)-2-[4-(2,6-Difluoro-3-methoxy-phenoxy)-2-oxo-2,5-dihydro-pyrrol-1-yl]-4-methyl-pentanoic acid [1-((R)-2,3-dihydroxy-propyl)-1H-pyrazol-3-yl]-amide] |
| 0.984 | – | CCOc1cccc(OC2=CC(=O)N([C@@H](C[C@H](C)OCC)C(=O)Nc3ccn(CC(C)(C)O)n3)C2)c1F [Example 259, (2S,4S)-4-Ethoxy-2-[4-(3-ethoxy-2-fluoro-phenoxy)-2-oxo-2,5-dihydro-pyrrol-1-yl]-pentanoic acid [1-(2-hydroxy-2-methyl-propyl)-1H-pyrazol-3-yl]-amide] |
| 3.771 | – | COC1=CC(=O)N([C@@H](CC2CCCC2)C(=O)Nc2ccn(CC(C)(C)O)n2)C1 [Example 1, (S)-3-Cyclopentyl-N-[1-(2-hydroxy-2-methyl-propyl)-1H-pyrazol-3-yl]-2-(4-methoxy-2-oxo-2,5-dihydro-pyrrol-1-yl)-propionamide] |
| 0.056 | – | CC[C@H](C)C[C@@H](C(=O)Nc1ccn(C[C@@H](O)CO)n1)N1CC(Oc2ccccc2Cl)=CC1=O (single isomer, unassigned) [Example 251] |
| 17.303 | – | O=C(Nc1ccn(C[C@@H](O)CO)n1)C(CC(F)F)N1CC(Oc2ccccc2Cl)=CC1=O (stereo partly drawn) [Example 221, 2-[4-(2-Chloro-phenoxy)-2-oxo-2,5-dihydro-pyrrol-1-yl]-N-[1-((R)-2,3-dihydroxy-propyl)-1H-pyrazol-3-yl]-4,4-difluoro-butyramide] |
| 1.849 | – | CCC[C@@H](C(=O)Nc1ccn(C[C@@H](O)CO)n1)N1CC(Oc2c(F)cccc2F)=CC1=O [Example 157, (S)-2-[4-(2,6-Difluoro-phenoxy)-2-oxo-2,5-dihydro-pyrrol-1-yl]-pentanoic acid [1-((R)-2,3-dihydroxy-propyl)-1H-pyrazol-3-yl]-amide] |
| 0.063 | – | CCOc1cccc(OC2=CC(=O)N([C@@H](CC(C)C)C(=O)Nc3cnc([C@H](O)CO)cn3)C2)c1F [Example 151, (S)-2-[4-(3-Ethoxy-2-fluoro-phenoxy)-2-oxo-2,5-dihydro-pyrrol-1-yl]-4-methyl-pentanoic acid [5-((S)-1,2-dihydroxy-ethyl)-pyrazin-2-yl]-amide] |

From patent US7741327B2 (Hoffmann-La Roche Inc., priority 2008, dated 2010)
